From patent US4962109A, “Insecticidally and acaricidally active pyrimidine esters and intermediates therefor” (Imperial Chemical Industries PLC, priority 1985, dated 1990)

Assays:
Assay type in all cases: in vivo
[1] = test system: Tetranychus urticae (spider mites - adult); assay: Contact test on spider mites - adult (TUa), French bean leaf, mortality; settings: 72 h, 500 ppm, contact, 3 days, read-out: TUa grading of mortality
Summary of the method: (§1)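 Product dissolved in acetone, diluted in water with 0.01% wetting agent to 500, 250 or 100 ppm; pests and/or host medium (plant or foodstuff) treated. Mortality or knockdown assessed 1–3 days later, graded A (80–100%), B (50–79%) or C (<50%).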

[2] = test system: Tetranychus urticae (spider mites - ova); assay: Contact test on spider mites - ova (TUe), French bean leaf, mortality; settings: 144 h, 500 ppm, contact, 6 days, read-out: TUe grading of mortality
Summary of the method: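 Graded read-out: A 80-100%, B 50-79%, C below 50% mortality or knockdown, assessed usually 1-3 days post-treatment. Liquid preparations at 500, 250 or 100 ppm by weight, from acetone solution diluted in water with 0.01% wetting agent, applied to pests and/or their host plant or food medium.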

Myzus persicae (aphids) = assay: Contact test on aphids (MP), Chinese Cabbage leaf, mortality; settings: 72 h, 500 ppm, contact, 3 days, read-out: MP grading of mortality
Summary of the method: as §1

[3] = test system: Nephotettix cincticeps (green leaf hopper - nymphs); assay: Contact test on green leaf hopper nymphs (NC), Rice plant, mortality; settings: 48 h, 500 ppm, contact, 2 days, read-out: NC grading of mortality
Summary of the method: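 Product dissolved in acetone, diluted in water with 0.01% wetting agent to 500, 250 or 100 ppm; nymphs and/or host rice plants treated. Mortality or knockdown assessed 1–3 days later, graded A (80-100%), B (50-79%), C (<50%).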

[4] = test system: Musca domestica (houseflies - adults); assay: Knockdown test on houseflies - adults (MD/KD), Cotton wool/sugar; settings: 500 ppm, 4 hours, read-out: MD/KD grading of knockdown
Summary of the method: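 Adult houseflies exposed to the compound at 500, 250 or 100 ppm in acetone/water with 0.01% wetting agent, on a cotton wool/sugar medium. Knockdown and mortality assessed, graded A (80-100%), B (50-79%) or C (<50%).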

[5] = test system: Musca domestica (houseflies - adults); assay: Contact test on houseflies - adults (MD), Cotton wool/sugar, mortality; settings: 72 h, 500 ppm, contact, 3 days, read-out: MD grading of mortality
Summary of the method: as §1

[6] = test system: Blattella germanica (cockroach nymphs); assay: Contact test on cockroach nymphs (BG/C), Plastic pot, mortality; settings: 48 h, 500 ppm, contact, 2 days, read-out: BG/C grading of mortality
Summary of the method: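 Cockroach nymphs and/or their medium were treated with aqueous preparations at 500, 250 or 100 ppm (acetone solution diluted in water with 0.01% Lissapol NX wetting agent). Mortality or knockdown was assessed typically 1–3 days later and graded A (80–100%), B (50–79%) or C (<50%).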

[7] = test system: Heliothis virescens (tobacco budworm - larvae); assay: Residual test on tobacco budworm larvae (HV), Cotton leaf, mortality; settings: 48 h, read-out: HV grading of mortality
Summary of the method: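 Product in acetone diluted with water containing 0.01% Lissapol NX, at 500, 250 or 100 ppm; pests and/or host medium (here cotton leaf) treated. Mortality scored one to three days later, graded A (80-100%), B (50-79%), C (<50%).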

[8] = test system: Spodoptera exigua (lesser army worm - larvae); assay: Residual test on lesser army worm larvae (SP), Cotton leaf, mortality; settings: 48 h, 500 ppm, residual, 2 days, read-out: SP grading of mortality
Summary of the method: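 Product dissolved in acetone and diluted in water with 0.01% wetting agent to 500, 250 or 100 ppm; larvae and/or cotton leaf host treated. Mortality or knockdown scored one to three days later and graded A (80-100%), B (50-79%) or C (<50%).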

[9] = test system: Diabrotica balteata (rootworm larvae); assay: Residual test on rootworm larvae (DB), Filter paper/maize seed, mortality; settings: 48 h, 500 ppm, residual, 2 days, read-out: DB grading of mortality
Summary of the method: as §1

Compound | mortality at 500 ppm [1] [%] | mortality at 500 ppm [2] [%] | mortality at 500 ppm (Myzus persicae (aphids)) [%] | mortality at 500 ppm [3] [%] | pest or weed control at 500 ppm [4] [%] | mortality at 500 ppm [5] [%] | mortality at 500 ppm [6] [%] | mortality at 500 ppm [7] [%] | mortality at 500 ppm [8] [%] | mortality at 500 ppm [9] [%]
C[C@@H](OC(=O)[C@@H](c1cnc(C(C)(C)C)nc1)C(C)(C)C)c1cccc(Oc2ccc(Cl)cc2)n1 (racemic) [Compound 181, (RS)-1-[6-(4-chlorophenoxy)pyrid-2-yl]ethyl (RS)-2-[2-(1,1-dimethylethyl)pyrimidin-5-yl]-3,3-dimethylbutanoate] | 80 to 100 | < 50 | 80 to 100 | 80 to 100 | 80 to 100 | 80 to 100 | < 50 | 80 to 100 | 80 to 100 | 80 to 100
CSc1c(COC(=O)C(c2cnc(C(C)(C)C)nc2)C(C)(C)C)cc(F)c(C)c1F (racemic) [Compound 182, 4-methyl-2-thiomethyl-3,5-difluorobenzyl (RS)-2-[2-(1,1-dimethylethyl)pyrimidin-5-yl]-3,3dimethylbutanoate] | 80 to 100 | < 50 | 50 to 79 | 80 to 100 | < 50 | < 50 | < 50 | < 50 | < 50 | < 50
CSc1c(F)c(F)c(COC(=O)C(c2cnc(C(C)(C)C)nc2)C(C)(C)C)c(F)c1F (racemic) [Compound 183] | 80 to 100 | < 50 | < 50 | 80 to 100 | 80 to 100 | 80 to 100 | < 50 | 80 to 100 | 80 to 100 | < 50
CCOc1c(F)c(COC)c(F)c(F)c1COC(=O)C(c1cnc(C(C)(C)C)nc1)C(C)(C)C (racemic) [Compound 185, 2,3,5-trifluoro-6-ethoxy-4-(methoxymethyl)benzyl (RS)-2-[2-(1,1-dimethylethyl)pyrimidin-5-yl]-3,3-dimethylbutanoate] | 80 to 100 | < 50 | 80 to 100 | 80 to 100 | 80 to 100 | 50 to 79 | < 50 | 80 to 100 | 80 to 100 | < 50
CCOCc1c(F)c(F)c(COC(=O)C(c2cnc(C(C)(C)C)nc2)C(C)(C)C)c(F)c1F (racemic) [Compound 186, 2,3,5,6-tetrafluoro-4-(ethoxymethyl)benzyl (RS)-2-[2-(1,1-dimethylethyl)pyrimidin-5-yl]-3,3-dimethylbutanoate] | 80 to 100 | < 50 | 80 to 100 | 80 to 100 | 80 to 100 | < 50 | < 50 | 80 to 100 | 80 to 100 | < 50
CCOCc1c(F)c(F)c(COC(=O)C(c2cnc(C(C)(C)C)nc2)C(C)(C)C)c(OC)c1F (racemic) [Compound 187, 2,3,5-trifluoro-6-methoxy-4-(ethoxymethyl)benzyl (RS)-2-[2-(1,1-dimethylethyl)pyrimidin-5-yl]-3,3-dimethylbutanoate] | 80 to 100 | < 50 | 80 to 100 | 80 to 100 | 80 to 100 | 50 to 79 | < 50 | 50 to 79 | 80 to 100 | < 50
CCOCc1c(F)c(F)c(COC(=O)C(c2cnc(C(C)(C)C)nc2)C(C)(C)C)c(OCC)c1F (racemic) [Compound 188, 2,3,5-trifluoro-6-ethoxy-4-(ethoxymethyl)benzyl (RS)-2-[2-(1,1-dimethylethyl)pyrimidin-5-yl]-3,3-dimethylbutanoate] | 80 to 100 | < 50 | 80 to 100 | 50 to 79 | < 50 | < 50 | < 50 | 50 to 79 | 80 to 100 | < 50
